Experimental data: paper PMC8769072, “Proteome‐scale mapping of binding sites in the unstructured regions of the human proteome” (Molecular Systems Biology, 2022)
Where two headings read alike, the source gives them in different places. Each block holds one compound with its values, some of them ahead of it. Where a SMILES comes first, the peptide text is derived from it. Where no end group is shown, it is not given here. [ ]: non-standard residue; d: D form. The star is where a group is joined. FITC = O=C1OC2(c3ccc(O)cc3Oc3cc(O)ccc32)c2ccc(NC(=S)*)cc21; pT = C[C@@H](OP(=O)(O)O)[C@H](N)C(=O)O

Key:
CLTC = target: T1, CLTC (Homo sapiens, UniProt Q00610); assay: FP competition, CLTC; assay type: binding; conditions: competitive FP assay
T1 construct: Q00610; CLTC; Clathrin propeller; 364; pETM33; Genescript; 6-His-GST; made in house; host or cells: Escherichia coli BL21(DE3) gold (stated for the bait preparation)
T1 sequence (Q00610 1-364): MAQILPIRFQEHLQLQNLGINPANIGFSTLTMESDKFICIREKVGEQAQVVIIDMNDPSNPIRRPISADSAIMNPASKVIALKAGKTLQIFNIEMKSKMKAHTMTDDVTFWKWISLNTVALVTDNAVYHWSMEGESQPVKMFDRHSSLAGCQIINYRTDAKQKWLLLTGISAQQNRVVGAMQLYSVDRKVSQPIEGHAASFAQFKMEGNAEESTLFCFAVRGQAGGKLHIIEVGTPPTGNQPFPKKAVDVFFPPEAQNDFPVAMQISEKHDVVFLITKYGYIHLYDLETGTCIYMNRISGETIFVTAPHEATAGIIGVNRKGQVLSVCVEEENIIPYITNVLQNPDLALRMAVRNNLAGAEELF

KPNB1 HEAT = target: T2, KPNB1 HEAT (Homo sapiens, UniProt Q14974); assay: FP competition, KPNB1 HEAT; assay type: binding; conditions: for Ki: FP competition with FITC-NUP153 probe, low-affinity value
T2 construct: Q14974; KPNB1; HEAT; 485; pETM41; Genescript; 6-His-MBP (from vector pETM41) (cleaved yes); made in house; host or cells: bacteria (E. coli BL21(DE3) gold is named only for the phage-selection preparations)
T2 sequence (Q14974 1-485): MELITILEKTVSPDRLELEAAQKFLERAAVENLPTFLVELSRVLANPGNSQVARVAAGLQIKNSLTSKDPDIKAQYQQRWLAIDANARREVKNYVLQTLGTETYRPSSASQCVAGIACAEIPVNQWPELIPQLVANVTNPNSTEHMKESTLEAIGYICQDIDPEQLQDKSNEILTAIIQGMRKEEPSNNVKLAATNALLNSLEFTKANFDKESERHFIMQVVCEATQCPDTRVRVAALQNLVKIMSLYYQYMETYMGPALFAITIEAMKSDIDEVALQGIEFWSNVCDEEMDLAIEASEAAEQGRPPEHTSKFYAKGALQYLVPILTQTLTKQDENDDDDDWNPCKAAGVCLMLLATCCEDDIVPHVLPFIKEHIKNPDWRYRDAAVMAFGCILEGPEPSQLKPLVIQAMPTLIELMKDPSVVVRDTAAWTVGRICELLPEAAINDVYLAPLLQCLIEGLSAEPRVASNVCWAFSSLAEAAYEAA

KPNA4 ARM [1] = target: T3, KPNA4 ARM (Homo sapiens, UniProt O00629); assay: FP saturation (direct binding of FITC probes), KPNA4 ARM; conditions: Appendix Fig S7; saturation curves of FITC-labeled probes with KPNA4 ARM
T3 construct: O00629; KPNA4; Arm; 68; 487; pETM33/pETM41; Genescript; made in house; host or cells: bacteria (E. coli BL21(DE3) gold is named only for the phage-selection preparations)
T3 sequence (O00629 68-487): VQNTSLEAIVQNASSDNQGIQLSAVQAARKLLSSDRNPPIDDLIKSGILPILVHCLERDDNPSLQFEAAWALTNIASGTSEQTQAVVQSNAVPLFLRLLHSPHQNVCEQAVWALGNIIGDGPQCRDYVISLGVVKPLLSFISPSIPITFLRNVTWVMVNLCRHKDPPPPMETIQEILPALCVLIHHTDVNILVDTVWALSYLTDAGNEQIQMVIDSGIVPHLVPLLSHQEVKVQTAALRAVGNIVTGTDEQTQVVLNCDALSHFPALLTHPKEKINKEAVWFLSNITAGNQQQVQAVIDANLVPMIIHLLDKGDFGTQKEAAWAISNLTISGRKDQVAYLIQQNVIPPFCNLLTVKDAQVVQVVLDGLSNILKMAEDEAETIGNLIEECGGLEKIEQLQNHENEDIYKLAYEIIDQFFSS

KPNA4 ARM [2] = target: T3, KPNA4 ARM; assay: FP competition, KPNA4 ARM major pocket (FITC-Myc probe); assay type: binding; conditions: FP competition with FITC-Myc320-328 probe for the major pocket; 50 mM KPO4 pH 7.5; n = 3 technical replicates
Description: (§1) Like other importins, KPNA4 has two distinct NLS‐binding pockets on the surface of an armadillo (ARM) repeat fold (major pocket, ARM 2–4; minor pocket, ARM 6–8; Fig 5B) (Smith et al, [2018]). Bipartite NLSs are usually 17–19 amino acids long and engage both pockets. Monopartite NLSs are short basic stretches, divided into five classes (Kosugi et al, [2009]): class I KR[KR]R or K[KR]RK, class II [PR]xxKR[^DE][KR] (where ^ indicates “not”), class III KRx[WFY]xxAF, class IV [RP]xxKR[KR][^DE], and class V LGKR[KR][WFY]. The class I and class II motifs preferentially interact with the major pocket (Kosugi et al, [2009]). In contrast, class III and class IV NLSs preferentially bind to the minor pocket. Using KPNA4 as a bait against the HD2 P8 library we identified 33 peptides found in 32 proteins. Of the 26 proteins for which information was available, 22 proteins were annotated as having nuclear or nucleolar localization in the UniProt database. To gain additional information we combined the data generated for KPNA4 by screening against the complete P8 HD2 library, with the results generated using two relevant sublibraries (the cytoplasmic and nuclear, and nuclear sublibraries) resulting in a set of 92 peptides containing NLS‐like sequences found in 76 proteins. Using these peptides we could generate consensus motifs that matched four of the previously reported NLS classes (Fig 5A; class I‐IV). […] Three peptides bound only to the major pocket. Eight peptides with class III motif and one KRxH‐containing peptide only bound to the minor pocket. Five peptides outcompeted both probe peptides, which may be explained by the amino acid sequence matching both class II and class III motifs (e.g., 1135‐ PSPKRKL ‐1139 in ZNF532; Fig 5), and possibly by cross specificity of the two binding pockets.

KPNA4 ARM [3] = target: T3, KPNA4 ARM; assay: FP competition, KPNA4 ARM minor pocket (FITC-NCOR2 probe); assay type: binding
Description: as §1

TLN1 PTB = target: T4, TLN1 PTB (Homo sapiens, UniProt Q9Y490); assay: FP competition, TLN1 PTB; assay type: binding
T4 construct: Q9Y490; TLN1; PTB; 309; pHH0103; Sidhu Lab (PMID: 33438817); made in house; host or cells: bacteria (E. coli BL21(DE3) gold is named only for the phage-selection preparations)
T4 sequence (Q9Y490 309-401): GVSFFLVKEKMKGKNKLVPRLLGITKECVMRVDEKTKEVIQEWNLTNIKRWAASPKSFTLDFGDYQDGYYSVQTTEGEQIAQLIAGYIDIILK

KEAP1 Kelch = target: T5, KEAP1 Kelch (Homo sapiens, UniProt Q14145); assay: FP competition, KEAP1 Kelch; assay type: binding; conditions: for binding to KEAP1 Kelch, result in words: FP competition with FITC-NFE2L1 probe
T5 construct: Q14145; KEAP1; Kelch; 321; 609; pETM33; Genescript; made in house; host or cells: bacteria (E. coli BL21(DE3) gold is named only for the phage-selection preparations)
T5 sequence (Q14145 321-609): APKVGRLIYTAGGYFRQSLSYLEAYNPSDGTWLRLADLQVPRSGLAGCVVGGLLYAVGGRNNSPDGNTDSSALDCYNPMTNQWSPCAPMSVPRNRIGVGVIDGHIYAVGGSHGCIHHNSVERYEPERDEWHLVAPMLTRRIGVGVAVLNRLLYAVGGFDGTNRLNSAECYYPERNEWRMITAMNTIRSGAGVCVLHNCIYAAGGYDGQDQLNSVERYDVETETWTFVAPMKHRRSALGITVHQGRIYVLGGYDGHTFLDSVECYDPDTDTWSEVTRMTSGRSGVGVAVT

IC50 (CLTC): 87 µM
Compound: CC[C@H](C)[C@H](NC(=O)[C@H](CC(C)C)NC(=O)[C@@H]1CCCN1C(=O)[C@H](CC(C)C)NC(=O)[C@H](CC(=O)O)NC(=O)[C@@H](NC(=O)[C@H](CC(C)C)NC(C)=O)[C@@H](C)CC)C(=O)N[C@@H](CC(=O)O)C(=O)N[C@@H](Cc1ccccc1)C(=O)N[C@@H](CS)C(=O)N[C@@H](CC(=O)O)C(=O)N[C@H](C(=O)N1CCC[C@H]1C(=O)N[C@@H](CCC(=O)O)C(=O)N[C@@H](C)C(=O)N[C@@H](Cc1c[nH]cn1)C(=O)N[C@@H](Cc1ccc(O)cc1)C(=O)O)[C@@H](C)OP(=O)(O)O [GTSE1 pT] (Ac-LIDLPLIDFCD[pT]PEAHY-OH)

Ki (KPNB1 HEAT): 1000 µM
Compound: CC(=O)NCC(=O)N[C@@H](Cc1ccc(O)cc1)C(=O)N[C@H](C(=O)N[C@@H](Cc1ccccc1)C(=O)N[C@@H](CCC(N)=O)C(=O)N[C@H](C(=O)N[C@@H](CCC(N)=O)C(=O)N[C@@H](CC(=O)O)C(=O)NCC(=O)N[C@@H](C)C(=O)N1CCC[C@H]1C(=O)NCC(=O)N[C@H](C(=O)N[C@@H](Cc1ccccc1)C(=O)N[C@@H](CC(N)=O)C(=O)N[C@@H](Cc1ccccc1)C(=O)O)[C@@H](C)O)C(C)C)[C@@H](C)O [KPNA2_514–529]

Kd (KPNA4 ARM [1]): 0.228 ± 0.011 µM
Compound: CC[C@H](C)[C@H](NC(=O)[C@H](C)NC(=O)[C@H](CCCNC(=N)N)NC(=O)CNC(=O)[C@@H](NC(=O)[C@H](CCCNC(=N)N)NC(=O)CNC(=O)[C@H](CCC(=O)O)NC(=O)[C@H](CCSC)NC(=O)[C@H](CCSC)NC(=O)[C@H](CC(=O)O)NC(=O)[C@H](Cc1ccc(O)cc1)NC(=O)[C@@H](NC(=O)[C@H](CCCNC(=N)N)NC(=O)[C@H](CCCCN)NC(=O)[C@@H]1CCCN1C(=S)Nc1ccc2c(c1)C(=O)OC21c2ccc(O)cc2Oc2cc(O)ccc21)[C@@H](C)O)C(C)C)C(=O)O [NCOR2 FITC] ({FITC}-PKRTYDMMEGRVGRAI-OH)

IC50 (KPNA4 ARM [2]): 0.26 µM
Compound: CC(C)C[C@H](NC(=O)[C@H](CCCNC(=N)N)NC(=O)[C@@H]1CCCN1C(=O)[C@H](CCCNC(=N)N)NC(=O)[C@H](CCCCN)NC(=O)[C@H](CC(N)=O)NC(=O)[C@@H]1CCCN1C(=O)[C@H](Cc1ccccc1)NC(=O)[C@@H](NC(=O)[C@H](CC(=O)O)NC(=O)[C@H](CCC(=O)O)NC(=O)[C@@H](N)CO)[C@@H](C)O)C(=O)N[C@@H](CCC(=O)O)C(=O)N[C@@H](CC(=O)O)C(=O)N[C@@H](CCCCN)C(=O)N[C@H](C(=O)N[C@H](C(N)=O)C(C)C)[C@@H](C)O [SPRTN]

IC50 (KPNA4 ARM [3]): 1.3 µM
Compound: CC(C)C[C@H](NC(=O)[C@H](CCCCN)NC(=O)[C@H](CCCNC(=N)N)NC(=O)[C@H](CCCCN)NC(=O)[C@@H]1CCCN1C(=O)[C@H](CO)NC(=O)[C@@H]1CCCN1)C(=O)N[C@@H](CCC(=O)O)C(=O)N[C@@H](CCC(=O)O)C(=O)N1CCC[C@H]1C(=O)N[C@H](C(=O)N[C@@H](CC(C)C)C(=O)N[C@@H](CCC(=O)O)C(=O)N[C@@H](Cc1ccccc1)C(=O)N[C@@H](CCCNC(=N)N)C(=O)N1CCC[C@H]1C(N)=O)C(C)C [ZNF532]

IC50 (KPNA4 ARM [3]): 0.5 µM
Compound: AGVKRSAAEMYGSVTE-NH2 [HNRNPC]

IC50 (TLN1 PTB): 1430 µM | Ki (TLN1 PTB; FP competition with FITC-PIP5K1C probe): 500 µM
Compound: AKWDTANNPLYKEATS-NH2 [ITB3]

IC50 (KPNB1 HEAT): 2200 µM | Ki (KPNB1 HEAT): ~1000 µM
Compound: Ac-AYAPPVFVFQKDKGQK-NH2 [RANBP3]

IC50 (KPNA4 ARM [3]): 11 µM
Compound: Ac-EISLKRSYESVEGNIK-NH2 [NCOR1 Wt]

IC50 (KEAP1 Kelch): 2.3 µM | binding to KEAP1 Kelch, result in words (KEAP1 Kelch): no effect on binding
Compound: Ac-GIIDPSTGECFPVTDY-NH2

IC50 (KEAP1 Kelch): 1.5 µM
Compound: Ac-GIIDPSTGERFPVTDY-NH2 [PLEC 4457-4471]

IC50 (CLTC): 97 µM
Compound: Ac-LIDLPLIDFCDTPEAHY [GTSE1]

IC50 (KEAP1 Kelch): 3 µM
Compound: Ac-LIYVDKENGEPGTRVV-NH2 [PTTG1]

IC50 (KPNB1 HEAT): 49 µM
Compound: Ac-NPPVATFVFGQSSNPY-NH2 [NUP153]

IC50 (KEAP1 Kelch): 4430 µM
Compound: Ac-PPLPPPPLPPAPSLPY-NH2 [ATF5]

Ki (KEAP1 Kelch; FP competition with FITC-NFE2L1 228-243 probe, protein at 4x KD and 10 nM probe in master mix, 50 mM KPO4 pH 7.5, Ki calculated from IC50, triplicates): > 2040 µM | IC50 (KEAP1 Kelch; FP competition with FITC-NFE2L1 228-243 probe, protein at 4x KD and 10 nM probe in master mix, 50 mM KPO4 pH 7.5, triplicates): > 2040 µM | binding to KEAP1 Kelch, result in words (KEAP1 Kelch): did not bind at all
Compound: Ac-VLPDCLTDGSDVVSDY-NH2 [CFAP36]

IC50 (KEAP1 Kelch): 2540 µM
Compound: Ac-YDEEKGEFLPIQPAQH-NH2 [NFE2L2 T80K]

IC50 (KEAP1 Kelch): 0.31 µM
Compound: Ac-YDEETGEFLPIQPAQH-NH2 [NFE2L2 Wt]

IC50 (KEAP1 Kelch): 1650 µM
Compound: Ac-YDEKTGEFLPIQPAQH-NH2 [NFE2L2 E79K]

Compound: Ac-YMQHLQEQQQQQMHLQ-NH2 [TREF1]
IC50 (KEAP1 Kelch): 490 µM

IC50 (CLTC): 220 µM
Compound: Ac-YVSGNLIDLCGNQGLP [MITF Y265C]

Compound: Ac-YVSGNLIDLYGNQGLP [MITF]
IC50 (CLTC): 150 µM
